Results as given in the NIST ThermoML archive (doi:10.1021/acs.jced.8b01097).
Numbers after ± are expanded uncertainties.

Key:
[1] = 85 kPa, Liquid; for viscosity: Concentric cylinders viscometry; for mass density: Vibrating tube method
[2] = xn = mol fraction of the nth substance listed; details: 85 kPa, Liquid; for viscosity: Concentric cylinders viscometry; for mass density: Vibrating tube method

NCCCO [3-amino-1-propanol]
[1]
Details | mass density [kg/m3] | viscosity [mPa·s]
293.15 K | 987.8 ± 1.3 | 37.33 ± 2.3
298.15 K | 984.3 ± 1.2 | 28.59 ± 1.7
303.15 K | 980.3 ± 1.2 | 22.31 ± 1.4
308.15 K | 976.2 ± 1.2 | 17.67 ± 1.1
313.15 K | 972.3 ± 1.2 | 14.21 ± 0.86
318.15 K | 968.5 ± 1.2 | 11.58 ± 0.7
323.15 K | 964.9 ± 1.2 | 9.546 ± 0.58

CCC(C)O (stereo not drawn) [butan-2-ol]
[1]
Details | mass density [kg/m3] | viscosity [mPa·s]
293.15 K | 806.2 ± 1 | 3.743 ± 0.23
298.15 K | 802 ± 1 | 3.101 ± 0.19
303.15 K | 797.9 ± 1 | 2.579 ± 0.16
308.15 K | 793.6 ± 1 | 2.162 ± 0.13
313.15 K | 789.2 ± 1 | 1.828 ± 0.11
318.15 K | 784.7 ± 1 | 1.559 ± 0.094
323.15 K | 780.2 ± 1 | 1.318 ± 0.08

CCC(C)O (stereo not drawn) [butan-2-ol] + NCCCO
[2], x1 = 1
Details | mass density [kg/m3] | viscosity [mPa·s]
293.15 K | 806.2 ± 1 | 3.743 ± 0.23
298.15 K | 802 ± 1 | 3.101 ± 0.19
303.15 K | 797.9 ± 1 | 2.579 ± 0.16
308.15 K | 793.6 ± 1 | 2.162 ± 0.13
313.15 K | 789.2 ± 1 | 1.828 ± 0.11
318.15 K | 784.7 ± 1 | 1.559 ± 0.094
323.15 K | 780.2 ± 1 | 1.318 ± 0.08

CCCO [propan-1-ol]
[1]
Details | mass density [kg/m3] | viscosity [mPa·s]
293.15 K | 803.5 ± 1 | 2.215 ± 0.13
298.15 K | 799.4 ± 1 | 1.97 ± 0.12
303.15 K | 795.4 ± 1 | 1.752 ± 0.11
308.15 K | 791.3 ± 1 | 1.563 ± 0.094
313.15 K | 787.2 ± 1 | 1.399 ± 0.085
318.15 K | 783.1 ± 1 | 1.255 ± 0.076
323.15 K | 778.9 ± 1 | 1.129 ± 0.068

CCCO [propan-1-ol] + CCC(C)O
[2], x2 = 0
Details | mass density [kg/m3] | viscosity [mPa·s]
293.15 K | 803.5 ± 1 | 2.215 ± 0.13
298.15 K | 799.4 ± 1 | 1.97 ± 0.12
303.15 K | 795.4 ± 1 | 1.752 ± 0.11
308.15 K | 791.3 ± 1 | 1.563 ± 0.094
313.15 K | 787.2 ± 1 | 1.399 ± 0.085
318.15 K | 783.1 ± 1 | 1.255 ± 0.076
323.15 K | 778.9 ± 1 | 1.129 ± 0.068

CC(C)O [propan-2-ol]
[1]
Details | mass density [kg/m3] | viscosity [mPa·s]
293.15 K | 784.9 ± 1 | 2.429 ± 0.15
298.15 K | 780.7 ± 1 | 2.095 ± 0.13
303.15 K | 776.4 ± 1 | 1.808 ± 0.11
308.15 K | 772.1 ± 1 | 1.567 ± 0.094
313.15 K | 767.6 ± 1 | 1.366 ± 0.082
318.15 K | 763.1 ± 1 | 1.195 ± 0.072
323.15 K | 758.5 ± 1 | 1.052 ± 0.064

CC(C)O [propan-2-ol] + CCC(C)O
[2], x2 = 0
Details | mass density [kg/m3] | viscosity [mPa·s]
293.15 K | 784.9 ± 1 | 2.429 ± 0.15
298.15 K | 780.7 ± 1 | 2.095 ± 0.13
303.15 K | 776.4 ± 1 | 1.808 ± 0.11
308.15 K | 772.1 ± 1 | 1.567 ± 0.094
313.15 K | 767.6 ± 1 | 1.366 ± 0.082
318.15 K | 763.1 ± 1 | 1.195 ± 0.072
323.15 K | 758.5 ± 1 | 1.052 ± 0.064
